Measured values as given in ChEMBL document CHEMBL3430912, “GSK Tres Cantos Anti-Kinetoplastid Screening (TCAKS) Data”.

What was measured:
Trypanosoma cruzi [1] = experiment: GSK_TCAKS: pIC50 Trypanosoma cruzi viability assay using beta-GAL activity. This assay was run at single shot at 5uM compound concentration per well. The biological reagents consisted of NIH-3T3 host cells and trypomastigotes parasitic cells; both cell types were set to a 3.3 * 10^5 cells/mL dilution in assay DMEM by means of a CASY cell counter device using a 60um capillary. 6 uL of the mixture were dispensed per well (about 1 * 10^3 host-cells and 1 * 10^3 parasites) with a Multidrop Combi dispenser. […] In all wells, the percentage of DMSO never exceeded 0.5%. Plates incubated for four days at 37C, 5% CO2. The substrate used for the assay fluorescence intensity (FLINT) readout was resorufin-beta-D-galactopiranoside (Sigma-Aldrich) at 5uM per well. It was diluted in PBS supplemented with the soft detergent Igepal (Fluka).; assay type: functional, organism-based, Mus musculus; settings: Tulahuen, NIH3T3
Trypanosoma cruzi [2] = experiment: (§1) GSK_TCAKS: pIC50 Trypanosoma cruzi Imaging: Infected Cells. […] Cells were then washed once with PBS before infection. T. cruzi trypomastigotes, collected at days 5 to 8 after infection from LLC-MK2 parasite infected cultures, were allowed to swim out for 4h at 37C from a centrifuged pellet (2,500 rpm/10 min/room temperature). Trypomastigotes were then collected and counted in a CASY Cell Counter. Trypomastigotes, in supplemented DMEM, were added to H9c2 cultures in a multiplicity of infection of 1 and incubated for 18 h. Cells were washed once with PBS before incubation of the infected H9c2 monolayer with trypsin (Life-Technologies) to detach cells from the flask. Cells were counted in a CASY Cell Counter using a 150 um capillary and their density set at 5 * 10^4 cells per mL in supplemented assay DMEM. Infected H9c2 were dispensed into 384-well poly-lysine coated assay plates at 50uL per well using a Multidrop Combi dispenser. After seeding them, the plates were incubated at 37C, 5% CO2 for 72h. Cultures were then fixed and stained by addition of 50 uL of a solution containing 8% formaldehyde and 4 uM DRAQ5 DNA dye (BioStatus, UK) per well. […] Five images were collected per well for reliable statistical analysis. Automated image analysis was performed with a script developed on Acapella High Content Imaging and Analysis Software (PerkinElmer). Output: percentage of infected cells per well as a second infection marker.; assay type: functional, organism-based, Rattus norvegicus; settings: H9c2, 4 h
Trypanosoma cruzi [3] = experiment: GSK_TCAKS: pIC50 Trypanosoma cruzi Imaging: Amastigotes/Cell. […] Cells were then washed once with PBS before infection. T. cruzi trypomastigotes, collected at days 5 to 8 after infection from LLC-MK2 parasite infected cultures, were allowed to swim out for 4h at 37C from a centrifuged pellet (2,500 rpm/10 min/room temperature). Trypomastigotes were then collected and counted in a CASY Cell Counter. Trypomastigotes, in supplemented DMEM, were added to H9c2 cultures in a multiplicity of infection of 1 and incubated for 18 h. Cells were washed once with PBS before incubation of the infected H9c2 monolayer with trypsin (Life-Technologies) to detach cells from the flask. Cells were counted in a CASY Cell Counter using a 150 um capillary and their density set at 5 * 10^4 cells per mL in supplemented assay DMEM. Infected H9c2 were dispensed into 384-well poly-lysine coated assay plates at 50uL per well using a Multidrop Combi dispenser. After seeding them, the plates were incubated at 37C, 5% CO2 for 72h. Cultures were then fixed and stained by addition of 50 uL of a solution containing 8% formaldehyde and 4 uM DRAQ5 DNA dye (BioStatus, UK) per well. […] Five images were collected per well for reliable statistical analysis. Automated image analysis was performed with a script developed on Acapella High Content Imaging and Analysis Software (PerkinElmer). Output: number of amastigotes per cell as infection level measurement.; assay type: functional, organism-based, Rattus norvegicus; settings: H9c2, 4 h
Trypanosoma cruzi [4] = experiment: as §1, with “H2C9” for “Trypanosoma cruzi”, “H9c2 Host Cardiomyocytes.” for “Infected Cells.”, “Number” for “percentage”, “H9c2 Host Cardiomyocytes nuclei to determine drug-related cytotoxicity.” for “infected cells per well as a second infection marker.”; assay type: functional, organism-based, Rattus norvegicus; settings: H9c2, 4 h
Leishmania donovani [5] = experiment: GSK_TCAKS: pIC50 Leishmania donovani viability assay using fluorescence intensity. Assay plates (1536-well) were prepared by adding 30nL per well of compound. For single shot assay, the final compound concentration was 5uM. […] Briefly, eGFP LdBOB axenic amastigotes were harvested, fixed and counted in a CASY cell counter (Roche-Applied Science). A final concentration of 1.5 * 10^5 cells per well were prepared in amastigote media containing 500 U/mL penicillin/streptomycin (Invitrogen) and 6uL was dispensed to each experimental well using a Multidrop Combi dispenser (Thermo Scientific). 6uL of assay media was dispensed to control columns used as reference for 100% compound response. Following incubation for 72 h at 37C, 5% CO2, 2 uL of resazurin was added to each well at a final concentration of 0.5 mM in phosphate buffered saline (PBS) with IGEPAL (Sigma-Aldrich), 0.05% (v/v).; assay type: functional, organism-based
Leishmania donovani [6] = experiment: (§2) GSK_TCAKS: pIC50 Leishmania donovani Imaging: Infected Macrophages. Assay plates (384-well) were prepared by adding 250nL of compound to each well. For single shot assay, the final compound concentration was 5 uM. […] Automated image analysis was performed with a script developed on Acapella High Content Imaging and Analysis Software (PerkinElmer). Output: Percent of infected macrophage cells were reported for each well.; assay type: functional, organism-based, Homo sapiens; settings: THP-1
Leishmania donovani [7] = experiment: as §2, with “Amastigotes/Macrophages.” for “Infected Macrophages.”, “Average number” for “Percent”, “amastigotes per” for “infected”, “cell” for “cells”; assay type: functional, organism-based, Homo sapiens; settings: THP-1
Leishmania donovani [8] = experiment: as §2, with “THP-1 Host” for “Infected”, “THP-1 cell count” for “Percent of infected macrophage cells”; assay type: functional, organism-based, Homo sapiens
[9] = system: Trypanosoma brucei brucei; experiment: GSK_TCAKS: pIC50 Trypanosoma brucei viability assay using fluorescence intensity. Assay plates (1536-well) were prepared by dispensing 25nL of compound solution per well using an Echo acoustic dispenser (Labcyte).; assay type: functional, organism-based; settings: Lister 427, 2 h
[10] = system: Trypanosoma brucei brucei; experiment: GSK_TCAKS: pIC50 Trypanosoma brucei viability assay using luminiscence. Assay plates (1536-well) were prepared. T. brucei cultures were harvested and counted in a CASY cell counter. A parasite suspension was prepared at a final concentration of 5 * 10^4 cells/mL in complete HMI9 medium and 6uL was dispensed to all wells containing compounds using a Multidrop Combi dispenser. 6uL of HMI9 media with 0.4% DMSO were dispensed to control columns. Plates were incubated for 24 h at 37C, 5% CO2 then tempered for 10 min at room temperature. ATP content was quantified by adding 4 uL of CellTiter-Glo Reagent (Promega) according to the manufacturer's instructions. Luminescence was measured using a ViewLux.; assay type: functional, organism-based; settings: Lister 427, CASY
[11] = GSK_TCAKS: pIC50 HepG2 human cell line viability assay using luminiscence. […] Seeding density was checked to ensure that new mono-layers were not more than 50% confluent at the time of harvesting. Cell suspension was added to 500 mL of the same medium at a final density of 1.2 * 10^5 cells/mL. This cell suspension was dispensed (25 uL, 3000 cells per well) into 384-well clear-bottom plates using a Multidrop Combi dispenser. Prior to addition of the cell suspension, the screening compounds (250 nL) were pre-dispensed into the plates with an Echo liquid handler. Plates were incubated for 48 h at 37C, 5% CO2. After incubation, plates equilibrated at room temperature for 30 min before proceeding to develop the luminescent signal. The signal developer, CellTiter-Glo Reagent, was allowed to equilibrate at room temperature for 30 min and added to the plates (25uL per well) using a Multidrop Combi dispenser. Plates were left for 10 min at room temperature for stabilization and then read using a ViewLux.; assay type: toxicity, cell-based
NIH3T3 = experiment: GSK_TCAKS: pIC50 NIH 3T3 cell line viability assay using luminiscence. Tissue culture surface treated assay plates (1536-well) were used. […] The 100% cells survival control was determined exposing the host-cells to a 0.5% DMSO concentration, whereas the 100% toxicity control was achieved by seeding the cells in presence of Amphotericin B at 50uM. Plates were incubated for four days at 37C, 5% CO2. The assay readout was developed by addition of 5uL of CellTiter-Glo Reagent following the manufacturer's instructions. Luminiscence was measured using a ViewLux.; assay type: functional, cell-based; settings: Mus musculus, NIH3T3, 96 h
[12] = molecular target: Sterol 14-alpha demethylase (Trypanosoma cruzi (strain CL Brener), UniProt Q7Z1V1); experiment: GSK_TCAKS: pIC50 CYP51 from Trypanosoma cruzi.; assay type: functional
Sterol 14-alpha demethylase, sequence (Q7Z1V1 whole entry): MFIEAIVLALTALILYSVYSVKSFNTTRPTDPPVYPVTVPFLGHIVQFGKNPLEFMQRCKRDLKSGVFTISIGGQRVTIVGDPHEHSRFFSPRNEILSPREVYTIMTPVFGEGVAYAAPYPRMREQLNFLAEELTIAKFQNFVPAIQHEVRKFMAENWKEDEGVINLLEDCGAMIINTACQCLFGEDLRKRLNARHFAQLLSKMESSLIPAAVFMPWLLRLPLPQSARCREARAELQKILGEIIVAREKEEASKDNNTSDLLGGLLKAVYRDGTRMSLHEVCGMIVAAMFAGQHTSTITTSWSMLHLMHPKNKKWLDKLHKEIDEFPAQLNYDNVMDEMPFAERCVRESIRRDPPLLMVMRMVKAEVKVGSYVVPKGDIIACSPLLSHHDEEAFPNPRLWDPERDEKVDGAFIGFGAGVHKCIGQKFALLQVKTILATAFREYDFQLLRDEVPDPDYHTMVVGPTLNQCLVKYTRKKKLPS

| SMILES | IC50 (Trypanosoma cruzi [1]) [µM] | IC50 (Trypanosoma cruzi [2]) [µM] | IC50 (Trypanosoma cruzi [3]) [µM] | IC50 (Trypanosoma cruzi [4]) [µM] | IC50 (Leishmania donovani [5]) [µM] | IC50 (Leishmania donovani [6]) [µM] | IC50 (Leishmania donovani [7]) [µM] | IC50 (Leishmania donovani [8]) [µM] | IC50 [9] [µM] | IC50 [10] [µM] | IC50 at 48 h [11] [µM] | IC50 (NIH3T3) [µM] | IC50 [12] [µM] |
| --- | --- | --- | --- | --- | --- | --- | --- | --- | --- | --- | --- | --- | --- |
| Cc1c([N+](=O)[O-])c(C(=O)Nc2sc3c(c2C#N)CCC(C)C3)nn1C (stereo not given) | 2.51 | 2.51 | 1.58 | > 50.1 | 25.1 | 31.6 | 15.8 | > 50.1 | > 39.8 | > 39.8 | > 100 | 12.6 | > 100 |
| O=C(Nc1ccc(Br)cn1)c1ccc(Cn2cnc([N+](=O)[O-])n2)cc1 | 0.158 | 0.126 | 0.0794 | > 50.1 | > 50.1 | > 50.1 | > 50.1 | > 50.1 | 1.58 | 3.16 | > 100 | > 50.1 | > 100 |
| CC1=NN(C(=O)CCn2cnc([N+](=O)[O-])n2)C(O)(C(F)(F)F)C1 (stereo not given) | 2 | 6.31 | 1.26 | > 50.1 | > 50.1 | > 50.1 | > 50.1 | > 50.1 | > 39.8 | > 39.8 | > 100 | > 50.1 | > 100 |
| O=C(c1cc2cc(Cl)ccc2[nH]1)N1CCCCC1c1cccnc1 (stereo not given) | 0.251 | 0.126 | 0.126 | 31.6 | 50.1 | 31.6 | 10 | 15.8 | 25.1 | 15.8 | 39.8 | 39.8 | 0.0631 |
| O=S(=O)(c1ccccc1C(F)(F)F)N1CCN(Cc2ccc(-n3ccnc3)cc2)CC1 | 0.251 | 0.251 | 0.2 | > 50.1 | 6.31 | > 50.1 | 25.1 | 15.8 | > 39.8 | > 39.8 | > 100 | > 50.1 | 0.1 |
| CC1(Oc2cncc(Cl)c2)CCN(Cc2cc3ccccc3[nH]2)C1 (stereo not given) | 1 | 1.58 | 1 | 10 | > 50.1 | 20 | 31.6 | 31.6 | > 39.8 | > 39.8 | 31.6 | 10 | 10 |
| COc1ccc(NS(=O)(=O)c2cc(NC(=O)c3ccc([N+](=O)[O-])s3)ccc2OC)cc1 | 0.0708 | 0.1 | 0.0794 | > 50.1 | 0.501 | 0.794 | 0.794 | 12.6 | 0.0501 | 0.126 | > 100 | > 50.1 | 1 |
| CC(=O)Nc1ccc(-c2csc(NC(=O)c3ccc([N+](=O)[O-])s3)n2)cc1 | 0.126 | 0.126 | 0.1 | 5.01 | 0.398 | 1 | 0.794 | 12.6 | 0.0251 | 0.158 | 50.1 | 6.31 | 6.31 |
| N#Cc1cccc(CN2CCC(N(Cc3cccnc3)C(=O)c3cc(F)c(F)cc3F)CC2)c1 | 0.398 | 0.398 | 0.316 | > 50.1 | > 50.1 | > 50.1 | 12.6 | > 50.1 | > 39.8 | > 39.8 | > 100 | 20 | 0.0501 |
| N#Cc1cccc(CN2CCC(c3nc(-c4ccc(C(F)(F)F)nc4)no3)CC2)c1 | 2 | 2 | 2.51 | > 50.1 | 12.6 | > 50.1 | > 50.1 | > 50.1 | > 39.8 | > 39.8 | > 100 | > 50.1 | > 100 |
| COc1ccc(-c2nc3ccncc3c(=O)n2CCOc2ccccc2)cc1 | 0.631 | 0.398 | 0.398 | > 50.1 | 39.8 | > 50.1 | > 50.1 | > 50.1 | 25.1 | 31.6 | > 100 | 31.6 | 0.0398 |
| Cc1cccc(N2CCCN(Cc3c[nH]c4ccccc34)CC2)n1 | 0.316 | 0.398 | 0.316 | 2.51 | > 50.1 | 10 | 10 | 10 | 12.6 | 12.6 | 12.6 | 25.1 | > 100 |
| O=C(CCCn1cnc([N+](=O)[O-])n1)Nc1cccc(Cl)c1 | 0.2 | 0.501 | 0.158 | > 50.1 | > 50.1 | > 50.1 | > 50.1 | > 50.1 | 5.01 | > 39.8 | > 100 | > 50.1 | 50.1 |
| CC1=C(C(=O)Nc2ccc(Cl)cc2)C(c2ccncc2)n2ncc(C(=O)Nc3ccccc3)c2N1 (stereo not given) | 0.02 | 0.02 | 0.02 | > 50.1 | 0.126 | > 50.1 | > 50.1 | 12.6 | 3.16 | > 39.8 | 79.4 | 31.6 | 0.126 |
| O=C(NCCc1cccnc1)c1ccc(-c2ccccc2F)o1 | 0.112 | 0.2 | 0.2 | > 50.1 | 20 | > 50.1 | > 50.1 | > 50.1 | 31.6 | > 39.8 | > 100 | 39.8 | 0.0631 |
